Data on three compounds can be found in ChEMBL document CHEMBL3627608, “Crystal structures of human RIP2 kinase catalytic domain complexed with ATP-competitive inhibitors: Foundations for understanding inhibitor selectivity” (Bioorg Med Chem, 2015).

The target of assay [1] is T1, Ephrin type-A receptor 6 (Homo sapiens) (UniProt Q9UF33).
T1 sequence (whole entry): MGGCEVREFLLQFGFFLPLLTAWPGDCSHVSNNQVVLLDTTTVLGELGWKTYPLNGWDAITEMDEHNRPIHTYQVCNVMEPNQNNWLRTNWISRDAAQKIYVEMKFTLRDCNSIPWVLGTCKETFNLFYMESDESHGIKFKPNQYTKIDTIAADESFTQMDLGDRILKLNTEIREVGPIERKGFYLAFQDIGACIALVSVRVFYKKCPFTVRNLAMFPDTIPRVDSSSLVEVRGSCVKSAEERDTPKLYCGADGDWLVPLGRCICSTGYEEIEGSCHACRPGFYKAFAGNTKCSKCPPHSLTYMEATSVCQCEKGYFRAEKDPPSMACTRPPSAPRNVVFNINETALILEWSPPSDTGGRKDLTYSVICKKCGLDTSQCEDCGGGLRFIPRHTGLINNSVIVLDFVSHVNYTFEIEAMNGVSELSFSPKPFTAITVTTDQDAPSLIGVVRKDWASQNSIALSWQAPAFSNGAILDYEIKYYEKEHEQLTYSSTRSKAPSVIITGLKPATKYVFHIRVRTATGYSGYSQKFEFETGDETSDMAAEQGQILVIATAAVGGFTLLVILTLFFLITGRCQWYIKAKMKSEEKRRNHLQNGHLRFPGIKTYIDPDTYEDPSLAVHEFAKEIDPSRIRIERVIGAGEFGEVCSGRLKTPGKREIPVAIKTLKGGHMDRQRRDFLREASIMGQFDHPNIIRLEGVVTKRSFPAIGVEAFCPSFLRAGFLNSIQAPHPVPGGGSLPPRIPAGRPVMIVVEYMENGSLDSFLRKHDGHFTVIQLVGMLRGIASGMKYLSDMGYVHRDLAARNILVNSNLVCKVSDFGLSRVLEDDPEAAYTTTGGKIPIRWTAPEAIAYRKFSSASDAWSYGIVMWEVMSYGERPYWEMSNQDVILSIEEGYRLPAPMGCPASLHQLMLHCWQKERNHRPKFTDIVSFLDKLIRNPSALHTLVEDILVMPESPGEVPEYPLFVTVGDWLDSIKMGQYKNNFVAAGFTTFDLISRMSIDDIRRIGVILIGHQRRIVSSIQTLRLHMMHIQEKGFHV
In words: Inhibition of EPHA6 (unknown origin) at 10 uM after 120 mins P33 radiolabeled kinase activity assay.

Assay [2] deals with Serine/threonine-protein kinase Nek4 (Homo sapiens) (UniProt P51957). In words: Inhibition of NEK4 (unknown origin) at 10 uM after 120 mins P33 radiolabeled kinase activity assay.
In assay [3] the target is Myosin light chain kinase, smooth muscle (Homo sapiens) (UniProt Q15746). As to the kind of experiment: Inhibition of MLCK (unknown origin) at 10 uM after 120 mins P33 radiolabeled kinase activity assay.
Assay [4] has as its target MAP kinase-interacting serine/threonine-protein kinase 1 (Homo sapiens) (UniProt Q9BUB5). As to the kind of experiment: Inhibition of MNK1 (unknown origin) at 10 uM after 120 mins P33 radiolabeled kinase activity assay.
The target in assay [5] is T2, Muscle, skeletal receptor tyrosine-protein kinase (Homo sapiens) (UniProt O15146).
T2 sequence (whole entry): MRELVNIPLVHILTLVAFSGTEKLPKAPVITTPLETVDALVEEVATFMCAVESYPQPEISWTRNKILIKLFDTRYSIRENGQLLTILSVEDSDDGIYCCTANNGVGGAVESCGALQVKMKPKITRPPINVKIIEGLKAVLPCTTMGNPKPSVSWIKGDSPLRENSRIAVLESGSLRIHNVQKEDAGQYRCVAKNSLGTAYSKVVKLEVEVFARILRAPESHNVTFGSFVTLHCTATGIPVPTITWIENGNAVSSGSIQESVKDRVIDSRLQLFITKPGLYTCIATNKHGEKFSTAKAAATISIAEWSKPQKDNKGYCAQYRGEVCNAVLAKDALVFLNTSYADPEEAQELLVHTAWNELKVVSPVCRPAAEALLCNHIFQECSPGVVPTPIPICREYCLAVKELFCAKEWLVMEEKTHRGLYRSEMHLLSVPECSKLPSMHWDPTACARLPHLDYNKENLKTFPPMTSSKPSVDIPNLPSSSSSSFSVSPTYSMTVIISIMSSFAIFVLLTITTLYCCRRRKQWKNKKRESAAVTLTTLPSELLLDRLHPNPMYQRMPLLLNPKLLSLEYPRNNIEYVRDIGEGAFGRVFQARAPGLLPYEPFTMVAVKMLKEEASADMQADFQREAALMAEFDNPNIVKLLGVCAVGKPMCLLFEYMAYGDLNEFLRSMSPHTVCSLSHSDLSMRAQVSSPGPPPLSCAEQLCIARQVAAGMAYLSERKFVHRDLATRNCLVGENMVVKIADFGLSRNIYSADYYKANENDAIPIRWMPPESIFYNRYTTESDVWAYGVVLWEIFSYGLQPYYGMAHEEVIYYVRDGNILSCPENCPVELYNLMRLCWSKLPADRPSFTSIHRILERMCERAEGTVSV
In words: Inhibition of MUSK (unknown origin) at 10 uM after 120 mins P33 radiolabeled kinase activity assay.

For assay [6], the target named is Serine/threonine-protein kinase 32B (Homo sapiens) (UniProt Q9NY57). As to the kind of experiment: Inhibition of STK32B (unknown origin) at 10 uM after 120 mins P33 radiolabeled kinase activity assay.
For assay [7], the target named is T3, Serine/threonine-protein kinase VRK1 (Homo sapiens) (UniProt Q99986).
T3 sequence (whole entry): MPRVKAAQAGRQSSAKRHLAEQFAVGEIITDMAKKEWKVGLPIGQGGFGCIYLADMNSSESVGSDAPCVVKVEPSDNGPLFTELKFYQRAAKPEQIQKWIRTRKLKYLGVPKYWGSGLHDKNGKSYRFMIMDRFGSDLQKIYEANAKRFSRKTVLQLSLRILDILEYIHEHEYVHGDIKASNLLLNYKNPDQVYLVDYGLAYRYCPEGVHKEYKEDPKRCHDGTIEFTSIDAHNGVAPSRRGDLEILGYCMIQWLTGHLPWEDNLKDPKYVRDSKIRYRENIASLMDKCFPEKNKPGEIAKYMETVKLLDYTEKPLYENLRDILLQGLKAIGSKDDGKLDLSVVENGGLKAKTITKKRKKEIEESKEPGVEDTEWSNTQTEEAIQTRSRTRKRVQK
As to the kind of experiment: Inhibition of VRK1 (unknown origin) at 10 uM after 120 mins P33 radiolabeled kinase activity assay.

For assay [8], the target named is Mast/stem cell growth factor receptor Kit (Homo sapiens) (UniProt P10721). As to the kind of experiment: Inhibition of c-Kit (unknown origin) at 10 uM after 120 mins P33 radiolabeled kinase activity assay.
The target in assay [9] is Casein kinase I isoform alpha (Homo sapiens) (UniProt P48729). In words: Inhibition of CK1alpha1 (unknown origin) at 10 uM after 120 mins P33 radiolabeled kinase activity assay.
Chain of Casein kinase I isoform alpha (Homo sapiens) (P48729 2-337 limits assumed): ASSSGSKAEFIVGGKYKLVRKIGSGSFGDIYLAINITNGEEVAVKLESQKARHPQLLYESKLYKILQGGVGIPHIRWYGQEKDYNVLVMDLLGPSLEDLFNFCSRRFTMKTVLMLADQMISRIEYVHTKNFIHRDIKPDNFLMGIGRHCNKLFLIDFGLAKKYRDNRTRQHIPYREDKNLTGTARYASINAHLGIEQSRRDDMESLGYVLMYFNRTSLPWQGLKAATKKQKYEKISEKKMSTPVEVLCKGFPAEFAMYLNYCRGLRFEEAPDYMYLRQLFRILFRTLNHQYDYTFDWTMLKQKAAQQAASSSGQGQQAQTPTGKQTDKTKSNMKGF

Chain of Serine/threonine-protein kinase 32B (Homo sapiens) (Q9NY57 whole entry): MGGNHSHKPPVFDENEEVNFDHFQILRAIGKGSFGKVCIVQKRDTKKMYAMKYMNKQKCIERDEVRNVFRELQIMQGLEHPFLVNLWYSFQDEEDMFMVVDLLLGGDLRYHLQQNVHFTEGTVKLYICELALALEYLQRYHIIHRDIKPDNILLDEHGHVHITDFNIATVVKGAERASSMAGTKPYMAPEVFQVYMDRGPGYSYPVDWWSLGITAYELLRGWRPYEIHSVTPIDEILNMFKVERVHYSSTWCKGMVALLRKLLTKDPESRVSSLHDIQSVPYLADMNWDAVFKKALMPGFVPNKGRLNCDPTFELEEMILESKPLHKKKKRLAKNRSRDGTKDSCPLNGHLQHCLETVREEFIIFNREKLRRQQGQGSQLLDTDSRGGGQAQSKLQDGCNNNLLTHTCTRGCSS
Chain of Mast/stem cell growth factor receptor Kit (Homo sapiens) (P10721 whole entry, canonical isoform): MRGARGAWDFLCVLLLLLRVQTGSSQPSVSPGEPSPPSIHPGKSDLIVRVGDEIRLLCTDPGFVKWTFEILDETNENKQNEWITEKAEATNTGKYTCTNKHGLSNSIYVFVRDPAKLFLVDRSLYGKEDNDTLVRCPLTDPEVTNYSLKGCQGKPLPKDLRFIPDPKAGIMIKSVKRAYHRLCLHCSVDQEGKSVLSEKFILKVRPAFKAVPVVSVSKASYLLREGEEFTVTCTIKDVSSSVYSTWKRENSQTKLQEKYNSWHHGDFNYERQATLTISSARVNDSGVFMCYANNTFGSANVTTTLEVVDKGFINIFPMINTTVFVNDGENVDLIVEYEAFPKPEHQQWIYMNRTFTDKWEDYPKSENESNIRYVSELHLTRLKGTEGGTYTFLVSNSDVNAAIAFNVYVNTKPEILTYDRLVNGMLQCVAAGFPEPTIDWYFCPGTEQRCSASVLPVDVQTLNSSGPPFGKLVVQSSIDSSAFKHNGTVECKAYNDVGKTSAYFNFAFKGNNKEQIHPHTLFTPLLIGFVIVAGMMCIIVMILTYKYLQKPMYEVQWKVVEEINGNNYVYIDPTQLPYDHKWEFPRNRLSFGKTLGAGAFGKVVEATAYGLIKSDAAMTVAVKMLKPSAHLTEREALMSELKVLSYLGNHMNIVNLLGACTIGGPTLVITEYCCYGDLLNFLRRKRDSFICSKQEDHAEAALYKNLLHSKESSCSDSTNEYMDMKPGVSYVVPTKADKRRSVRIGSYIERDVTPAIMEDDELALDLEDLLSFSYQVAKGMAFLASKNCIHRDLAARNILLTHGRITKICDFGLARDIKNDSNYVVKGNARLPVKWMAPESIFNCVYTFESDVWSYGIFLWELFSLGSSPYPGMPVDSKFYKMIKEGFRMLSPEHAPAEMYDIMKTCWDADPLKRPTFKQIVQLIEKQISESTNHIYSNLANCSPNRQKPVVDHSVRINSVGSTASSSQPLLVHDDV
Chain of Myosin light chain kinase, smooth muscle (Homo sapiens) (Q15746 whole entry): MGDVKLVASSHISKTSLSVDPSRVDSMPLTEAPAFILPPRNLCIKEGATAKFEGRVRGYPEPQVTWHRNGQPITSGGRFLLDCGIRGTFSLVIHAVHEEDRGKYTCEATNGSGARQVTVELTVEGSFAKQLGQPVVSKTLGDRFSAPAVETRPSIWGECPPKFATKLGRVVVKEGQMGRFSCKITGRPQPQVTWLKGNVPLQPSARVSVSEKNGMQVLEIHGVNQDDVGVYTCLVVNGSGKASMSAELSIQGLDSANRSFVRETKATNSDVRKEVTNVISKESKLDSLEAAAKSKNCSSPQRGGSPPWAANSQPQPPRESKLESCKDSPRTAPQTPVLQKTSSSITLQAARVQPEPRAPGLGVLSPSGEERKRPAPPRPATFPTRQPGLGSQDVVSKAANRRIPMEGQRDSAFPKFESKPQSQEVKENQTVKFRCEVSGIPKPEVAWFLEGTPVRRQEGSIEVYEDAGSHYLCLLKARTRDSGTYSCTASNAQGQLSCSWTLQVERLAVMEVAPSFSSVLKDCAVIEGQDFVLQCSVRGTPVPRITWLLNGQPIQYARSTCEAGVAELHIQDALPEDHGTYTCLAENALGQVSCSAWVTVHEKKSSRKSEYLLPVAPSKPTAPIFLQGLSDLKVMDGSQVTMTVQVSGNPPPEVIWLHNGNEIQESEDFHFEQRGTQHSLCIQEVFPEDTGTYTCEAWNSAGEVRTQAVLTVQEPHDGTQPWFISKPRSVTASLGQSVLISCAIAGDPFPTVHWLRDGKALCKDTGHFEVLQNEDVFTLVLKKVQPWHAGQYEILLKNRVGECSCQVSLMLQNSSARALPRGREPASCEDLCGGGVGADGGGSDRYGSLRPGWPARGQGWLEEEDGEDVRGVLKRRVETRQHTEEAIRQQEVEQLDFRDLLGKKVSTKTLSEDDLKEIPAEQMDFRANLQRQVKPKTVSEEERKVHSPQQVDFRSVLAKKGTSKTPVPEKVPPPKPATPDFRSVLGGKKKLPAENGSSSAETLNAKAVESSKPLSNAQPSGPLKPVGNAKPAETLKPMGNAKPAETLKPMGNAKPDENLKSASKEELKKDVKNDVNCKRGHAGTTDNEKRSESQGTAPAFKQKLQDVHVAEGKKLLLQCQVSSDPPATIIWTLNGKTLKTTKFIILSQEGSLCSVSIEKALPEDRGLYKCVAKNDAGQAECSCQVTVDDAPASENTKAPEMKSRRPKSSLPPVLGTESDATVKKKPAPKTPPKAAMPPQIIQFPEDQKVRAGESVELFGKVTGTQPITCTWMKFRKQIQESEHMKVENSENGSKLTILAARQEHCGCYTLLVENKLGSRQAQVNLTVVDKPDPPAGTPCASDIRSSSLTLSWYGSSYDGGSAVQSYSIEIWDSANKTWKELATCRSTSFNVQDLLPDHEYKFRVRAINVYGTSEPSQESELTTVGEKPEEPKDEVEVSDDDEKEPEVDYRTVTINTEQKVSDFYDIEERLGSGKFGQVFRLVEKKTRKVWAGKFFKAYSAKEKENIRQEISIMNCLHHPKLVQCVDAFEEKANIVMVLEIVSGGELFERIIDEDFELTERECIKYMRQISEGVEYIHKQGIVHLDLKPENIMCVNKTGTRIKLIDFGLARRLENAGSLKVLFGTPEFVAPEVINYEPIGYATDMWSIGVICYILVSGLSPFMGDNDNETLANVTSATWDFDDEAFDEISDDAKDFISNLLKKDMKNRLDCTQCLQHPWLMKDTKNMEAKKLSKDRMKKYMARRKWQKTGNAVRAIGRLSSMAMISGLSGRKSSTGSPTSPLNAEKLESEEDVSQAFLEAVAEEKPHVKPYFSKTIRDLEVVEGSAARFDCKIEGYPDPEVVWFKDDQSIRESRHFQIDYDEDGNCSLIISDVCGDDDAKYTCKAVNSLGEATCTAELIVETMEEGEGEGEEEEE
Chain of MAP kinase-interacting serine/threonine-protein kinase 1 (Homo sapiens) (Q9BUB5 whole entry, looked up): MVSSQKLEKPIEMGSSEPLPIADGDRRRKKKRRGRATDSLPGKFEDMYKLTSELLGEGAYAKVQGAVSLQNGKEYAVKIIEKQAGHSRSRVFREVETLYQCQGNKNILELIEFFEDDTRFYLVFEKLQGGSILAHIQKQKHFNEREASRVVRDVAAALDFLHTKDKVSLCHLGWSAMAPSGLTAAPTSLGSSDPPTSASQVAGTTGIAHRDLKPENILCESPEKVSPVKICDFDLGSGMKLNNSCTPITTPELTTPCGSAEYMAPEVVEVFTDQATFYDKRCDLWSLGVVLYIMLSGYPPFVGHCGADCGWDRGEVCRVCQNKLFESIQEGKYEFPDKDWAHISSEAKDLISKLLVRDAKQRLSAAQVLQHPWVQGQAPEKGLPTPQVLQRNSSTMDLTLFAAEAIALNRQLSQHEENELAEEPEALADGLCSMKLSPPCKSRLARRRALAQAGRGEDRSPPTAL
Chain of Serine/threonine-protein kinase Nek4 (Homo sapiens) (P51957 whole entry, looked up): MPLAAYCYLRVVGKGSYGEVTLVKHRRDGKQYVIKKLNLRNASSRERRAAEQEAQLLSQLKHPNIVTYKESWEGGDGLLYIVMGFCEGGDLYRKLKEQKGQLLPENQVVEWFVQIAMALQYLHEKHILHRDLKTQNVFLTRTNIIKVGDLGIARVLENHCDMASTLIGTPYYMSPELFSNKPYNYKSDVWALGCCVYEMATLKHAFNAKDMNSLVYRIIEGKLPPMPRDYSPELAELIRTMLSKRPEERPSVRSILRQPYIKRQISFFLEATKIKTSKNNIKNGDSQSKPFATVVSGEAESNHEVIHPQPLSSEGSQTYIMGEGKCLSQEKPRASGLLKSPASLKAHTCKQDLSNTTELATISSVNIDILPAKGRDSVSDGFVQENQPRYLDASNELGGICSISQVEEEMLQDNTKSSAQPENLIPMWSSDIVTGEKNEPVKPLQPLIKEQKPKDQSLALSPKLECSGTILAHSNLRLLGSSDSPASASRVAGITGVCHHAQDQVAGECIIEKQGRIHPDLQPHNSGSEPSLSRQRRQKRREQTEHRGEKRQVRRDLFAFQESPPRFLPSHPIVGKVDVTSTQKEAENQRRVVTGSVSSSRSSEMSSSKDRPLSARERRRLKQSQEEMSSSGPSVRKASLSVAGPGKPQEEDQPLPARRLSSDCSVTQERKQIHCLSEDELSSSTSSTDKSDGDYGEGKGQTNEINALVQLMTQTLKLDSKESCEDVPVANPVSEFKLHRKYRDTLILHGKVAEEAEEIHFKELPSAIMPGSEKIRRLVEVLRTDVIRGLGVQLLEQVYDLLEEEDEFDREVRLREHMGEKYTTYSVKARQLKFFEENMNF

As for `COCCNC(=O)c1ccc2c(c1)nc(-c1cnc(-c3ccc(Cl)cc3)[nH]1)n2CCOC`, the inhibition in assay [1] is 31.7%; in assay [2], -2.37%; in [3], 17.6%; in assay [4], 28.7%; in assay [5] it was -5.11%; in assay [6], -6.19%. Moreover, the inhibition in [7] turned out to be 3.79%; in assay [8] it was 5.79%; in assay [9], 46.8%.
In the case of `CC(C)(C)c1cc(NC(=O)Nc2ccc(Oc3ccncc3)cc2)no1`, the inhibition in assay [1] turned out to be 93.7%; in assay [2], 21.7%; in assay [3], 19.4%; in assay [4] it was 99.6%; in assay [5] it was 16.4%; in assay [6], 9.05%. Further, the figures for the inhibition in assay [7], in assay [8] and in assay [9] were 14%, 84.9% and 19.9%, respectively.
As to `CS(=O)(=O)c1cccc(Nc2nccc(-c3sc(N4CCOCC4)nc3-c3cccc(NS(=O)(=O)c4c(F)cccc4F)c3)n2)c1`, the inhibition in assay [1] turned out to be 95.8%; in assay [2], 59.9%; in assay [3], 15.6%; in assay [4], 73%; in [5], 33.2%; in assay [6] it was 24.6%. Also, the inhibition in assay [7] came out at 15.4%; in assay [8] it was 77.7%; in assay [9], 22.6%.

As usually defined, the inhibition is the drop in the measured response relative to a control, in per cent.
